Experimental data published in ChEMBL document CHEMBL5365543, “Benzamidine Conjugation Converts Expelled Potential Active Agents into Antifungals against Drug-Resistant Fungi” (J Med Chem, 2023).
Values after ≈ are worked out from the molar mass of the structure shown. Active and inactive are the calls of the source. No cut-off for these calls is given here.

Key:
[1] = Selectivity ratio of IC50 for cytotoxicity against human HBE cells to MIC80 for antifungal activity against clinical isolate fluconazole-resistant Candida glabrata CG2; type: toxicity, cell-based
[2] = Selectivity ratio of IC50 for cytotoxicity against human HBE cells to MIC80 for antifungal activity against clinical isolate fluconazole-resistant Candida albicans G5 harbouring MRR1 mutation overexpressing MdrL; type: toxicity, cell-based
[3] = Selectivity ratio of IC50 for cytotoxicity against human HBE cells to MIC80 for antifungal activity against clinical isolate fluconazole-resistant Candida auris CBS12774; type: toxicity, cell-based
Candida albicans [4] = experiment: Antifungal activity against wild-type Candida albicans SC5314 assessed as decrease in viable count measured after 24 hrs by colony-counting based time-killing kinetics assay; type: functional, organism-based; settings: dose 2-4 µg/ml
[5] = Selectivity ratio of IC50 for cytotoxicity against human HBE cells to MIC80 for antifungal activity against clinical isolate Candida albicans SCUPC2R14MPG2A harbouring UPC2 mutation overexpressing […]; type: toxicity, cell-based
Candida albicans [6] = experiment: Antifungal activity against clinical isolate fluconazole-resistant Candida albicans Gu5 harbouring TAC1 mutation overexpressing efflux pump CdrL and Cdr2 assessed as inhibition of fungal growth measured after 24 hrs by CLSI based microtiter plate analysis; type: functional
[7] = Selectivity ratio of IC50 for cytotoxicity against human HBE cells to MIC80 for antifungal activity against wild-type Candida albicans SC5314; type: toxicity, cell-based
Candida albicans [8] = experiment: Antifungal activity against clinical isolate Candida albicans YEM15 overexpressing efflux pump CdrL and Cdr2 assessed as inhibition of fungal growth measured after 24 hrs by CLSI based microtiter plate analysis; type: functional
[9] = Selectivity ratio of IC50 for cytotoxicity against human HBE cells to MIC80 for antifungal activity against clinical isolate fluconazole-resistant Candida tropicalis CT10; type: toxicity, cell-based
Candida albicans [10] = experiment: Antifungal activity against wild-type Candida albicans SC5314 assessed as inhibition of fungal growth measured after 24 hrs by CLSI based microtiter plate analysis; type: functional
[Candida] auris [11] = Antifungal activity against clinical isolate fluconazole-resistant Candida auris CBS12776 assessed as inhibition of fungal growth measured after 24 hrs by CLSI based microtiter plate analysis; type: functional; settings: Candidozyma auris
Cryptococcus neoformans = experiment: Antifungal activity against clinical isolate fluconazole-resistant Cryptococcus neoformans H99 assessed as inhibition of fungal growth measured after 24 hrs by CLSI based microtiter plate analysis; type: functional
Nakaseomyces glabratus = experiment: Antifungal activity against clinical isolate fluconazole-resistant Candida glabrata CG2 assessed as inhibition of fungal growth measured after 24 hrs by CLSI based microtiter plate analysis; type: functional
Candida albicans [12] = experiment: Inhibition of biofilm formation in fluconazole-resistant clinical isolate Candida albicans Gu5 at 8 microg/ml measured after 24 hrs by alamar blue staining based colorimetric analysis; type: functional
[13] = Selectivity ratio of IC50 for cytotoxicity against human HBE cells to MIC80 for antifungal activity against clinical isolate fluconazole-resistant Candida albicans Gu5 harbouring TAC1 mutation overexpressing efflux pump CdrL and Cdr2; type: toxicity, cell-based
Candida albicans [14] = experiment: (§1) Antifungal activity against clinical isolate fluconazole-resistant Candida albicans Gu5 infected in BALB/c mouse assessed as fold reduction in kidney fungal burden at 6 mg/kg, ip administered on day 1 and day 3 post fungal infection measured after 7 days; type: functional; settings: time 7 day
Candida albicans [15] = experiment: Antifungal activity against clinical isolate Candida albicans SCUPC2R14MPG2A harbouring UPC2 mutation overexpressing […] Erg11 assessed as inhibition of fungal growth measured after 24 hrs by CLSI based microtiter plate analysis; type: functional
Candida albicans [16] = experiment: Antifungal activity against clinical isolate Candida albicans YEM13 overexpressing efflux pump MdrL assessed as inhibition of fungal growth measured after 24 hrs by CLSI based microtiter plate analysis; type: functional
Candida tropicalis = experiment: Antifungal activity against clinical isolate fluconazole-resistant Candida tropicalis CT10 assessed as inhibition of fungal growth measured after 24 hrs by CLSI based microtiter plate analysis; type: functional
[17] = Selectivity ratio of IC50 for cytotoxicity against human HBE cells to MIC80 for antifungal activity against clinical isolate fluconazole-resistant Candida albicans DSY296 harbouring TAC1 mutation overexpressing efflux pump CdrL and Cdr2; type: toxicity, cell-based
[18] = Selectivity ratio of IC50 for cytotoxicity against human HBE cells to MIC80 for antifungal activity against clinical isolate fluconazole-resistant Candida albicans CA632; type: toxicity, cell-based
Candida albicans [19] = experiment: Inhibition of biofilm formation in wild-type Candida albicans SC5314 at 8 microg/ml measured after 24 hrs by alamar blue staining based colorimetric analysis; type: functional
Candida albicans [20] = experiment: Inhibition of biofilm formation in wild-type Candida albicans SC5314 at 2 microg/ml measured after 24 hrs by alamar blue staining based colorimetric analysis; type: functional, organism-based; settings: dose 2.0 µg/ml
[Candida] auris [21] = Antifungal activity against clinical isolate fluconazole-resistant Candida auris CBS12774 assessed as decrease in viable count measured after 24 hrs by colony-counting based time-killing kinetics assay; type: functional, organism-based; settings: Candidozyma auris, dose 2-4 µg/ml
[22] = Selectivity ratio of IC50 for cytotoxicity against human HBE cells to MIC80 for antifungal activity against clinical isolate Candida albicans YEM15 overexpressing efflux pump CdrL and Cdr2; type: toxicity, cell-based
Candida albicans [23] = experiment: Induction of drug resistance in wild-type Candida albicans SC5314 assessed as change in MIC at 0.5 times of MIC measured after 30 passages by broth microdilution method; type: functional
[24] = Cytotoxicity against human HBE cells assessed as inhibition of cell growth measured after 4 hrs by MTT assay; type: toxicity, cell-based
[25] = Toxicity in BALB/c mouse infected with clinical isolate fluconazole-resistant Candida albicans Gu5 assessed as animal survival rate at 6 mg/kg, ip administered on day 1 and day 3 post fungal infection measured after 7 days; type: organism-based; settings: in vivo, 168 h, time 7 day
Candida albicans [26] = experiment: Antifungal activity against clinical isolate Candida albicans SCMRRIR34MPG2A harbouring MRR1 mutation overexpressing efflux pump MdrL assessed as inhibition of fungal growth measured after 24 hrs by CLSI based microtiter plate analysis; type: functional
[27] = Selectivity ratio of IC50 for cytotoxicity against human HBE cells to MIC80 for antifungal activity against clinical isolate fluconazole-resistant Cryptococcus neoformans H99; type: toxicity, cell-based
Candida albicans [28] = experiment: Antifungal activity against clinical isolate fluconazole-resistant Candida albicans DSY296 harbouring TAC1 mutation overexpressing efflux pump CdrL and Cdr2 assessed as inhibition of fungal growth measured after 24 hrs by CLSI based microtiter plate analysis; type: functional
Candida albicans [29] = experiment: as §1, with “as” for “as fold”, “infection” for “burden”, “days by periodic acid-schiff/hematoxylin and eosin staining based microscopic analysis” for “days”; type: functional, organism-based; settings: time 7.0 day
[Candida] auris [30] = Antifungal activity against clinical isolate fluconazole-resistant Candida auris CBS12774 assessed as inhibition of fungal growth measured after 24 hrs by CLSI based microtiter plate analysis; type: functional; settings: Candidozyma auris
Candida albicans [31] = experiment: Antifungal activity against wild-type Candida albicans SC5314 assessed as decrease in viable count at 2 to 4 microg/ml by colony-counting based time-killing kinetics assay; type: functional, organism-based; settings: dose 2-4 µg/ml, time 24.0 hrs, TDE = time-dependent effect
Candida albicans [32] = experiment: Inhibition of biofilm formation in fluconazole-resistant clinical isolate Candida albicans Gu5 at 2 microg/ml measured after 24 hrs by alamar blue staining based colorimetric analysis; type: functional, organism-based; settings: dose 2.0 µg/ml
Candida albicans [33] = experiment: Antifungal activity against fluconazole-resistant clinical isolate Candida albicans Gu5 assessed as decrease in viable count at 2 to 4 microg/ml by colony-counting based time-killing kinetics assay; type: functional, organism-based; settings: dose 2-4 µg/ml, time 24.0 hrs, TDE = time-dependent effect

In the case of C=C1C(=O)[C@@]2(C)CC[C@@H]3[C@@]1(CC[C@H]1[C@@]3(C)CCC[C@@]1(C)C(=O)OCCCOc1ccc(C(=N)N)cc1)C2, the selectivity ratio [1] is reported as 8, the selectivity ratio [2] is reported as 8 and the selectivity ratio [3] is reported as 8. The Activity (Candida albicans [4]) was “Dose-Dependent Effect”, the selectivity ratio [5] was 8 and the MIC80 (Candida albicans [6]) was 2 µg/mL (≈ 3.95 µM). For the same compound, the selectivity ratio [7] was 8, the MIC80 (Candida albicans [8]) was 1 µg/mL (≈ 1.97 µM) and the selectivity ratio [9] was 8. For the same compound, the MIC (Candida albicans [10]) was “inactive”, the MIC80 (Candida albicans [10]; Candida albicans, SC5314, 24 h, read-out: MIC80) was 1 µg/mL (≈ 1.97 µM) and the MIC80 ([Candida] auris [11]) was 2 µg/mL (≈ 3.95 µM). For the same compound, the MIC80 (Cryptococcus neoformans) was 2 µg/mL (≈ 3.95 µM), the MIC80 (Nakaseomyces glabratus) was 2 µg/mL (≈ 3.95 µM) and the inhibition at 8 µg/mL (Candida albicans [12]) was 81.5%. For the same compound, the selectivity ratio [13] was 8, the “fold change (FC)” value (Candida albicans [14]) was roughly 50 and the MIC80 (Candida albicans [15]) was 1 µg/mL (≈ 1.97 µM). It also gave an MIC80 (Candida albicans [16]) of 1 µg/mL (≈ 1.97 µM), an MIC80 (Candida tropicalis) of 2 µg/mL (≈ 3.95 µM) and a selectivity ratio [17] of 8. For the same compound, the selectivity ratio [18] was 8, the inhibition at 8 µg/mL (Candida albicans [19]) was roughly 80.2% and the inhibition (Candida albicans [20]) was “Active”. For the same compound, the Activity ([Candida] auris [21]) was “Dose-Dependent Effect”, the selectivity ratio [22] was 8 and the Activity (Candida albicans [23]) was “Active”. For the same compound, the IC50 at 4 h [24] was 16.7 µg/mL (≈ 33 µM), the Survival [25] was 40% and the MIC80 (Candida albicans [26]) was 2 µg/mL (≈ 3.95 µM). For the same compound, the selectivity ratio [27] was 8, the MIC80 (Candida albicans [28]) was 2 µg/mL (≈ 3.95 µM) and the Activity (Candida albicans [29]) was “Active”. The MIC80 ([Candida] auris [30]) was 2 µg/mL (≈ 3.95 µM), the Activity (Candida albicans [31]) was “Tde” and the inhibition (Candida albicans [32]) was “Active”. For the same compound, the Activity (Candida albicans [33]) was “Tde”.
